Experimental data from ChEMBL document CHEMBL4402528, “Multi-target drugs active against leishmaniasis: A paradigm of drug repurposing” (Eur J Med Chem, 2019).
≈ marks a conversion by molar mass, not a printed value.

How the values were obtained:
Leishmania mexicana = test: Antileishmanial activity against Leishmania mexicana intracellular amastigotes infected in J774 macrophages assessed as reduction in parasite viability after 72 hrs; type: functional, organism-based; settings: J774, 72 h
Leishmania donovani = test: Antileishmanial activity against Leishmania donovani LCR-133 promastigotes assessed as reduction in RNA synthesis at 95 uM preincubated for 30 mins followed by addition of 5-[3H]-uridine and measured up to 145 mins by liquid scintillation counting method relative o control; type: functional; design: scale not given: the % may be the effect or the level left
Candida albicans = test: Antifungal activity against Candida albicans assessed as reduction in viability after 24 hrs by broth microdilution assay; type: functional
Leishmania amazonensis [1] = test: Antileishmanial activity against Leishmania amazonensis promastigotes assessed as reduction in parasite viability after 72 hrs by CCK-8 assay; type: functional, organism-based
Leishmania amazonensis [2] = test: Antileishmanial activity against Leishmania amazonensis MHOM/BR/77/LTB 0016 intracellular amastigotes infected in BALB/c Peritoneal macrophages assessed as reduction in parasite viability after 72 hrs by light microscopic method; type: functional, organism-based; settings: MHOM/BR/77/LTB 0016, 72 h
Leishmania amazonensis [3] = test: Antileishmanial activity against Leishmania amazonensis MHOM/BR/77/LTB 0016 promastigotes assessed as reduction in parasite viability after 72 hrs by MTT assay; type: functional, organism-based; settings: MHOM/BR/77/LTB 0016, 72 h
Leishmania amazonensis [4] = test: Antileishmanial activity against Leishmania amazonensis MHOM/BR/75/Josefa promastigotes assessed as reduction in parasite viability after 72 hrs by Neubauer chamber counting method; type: functional, organism-based
Leishmania amazonensis [5] = test: Antileishmanial activity against Leishmania amazonensis MHOM/BR/75/Josefa intracellular amastigotes infected in CF-1 macrophages assessed as reduction in parasite viability after 72 hrs by optical microscopic method; type: functional, organism-based

For `CC(C)=CCC/C(C)=C/CNCCNC1C2CC3CC(C2)CC1C3` (centres undefined) [SQ109], the IC50 (Leishmania mexicana) was 11 nM.
With `CCCCCCCCCCCCCCCCOP(=O)([O-])OCC[N+](C)(C)C` [MILTEFOSINE] the Activity (Leishmania donovani) was 96.32%.
With `C[C@@H]1[C@H](O)[C@@H](C)/C=C/C=C/C=C/C=C/C=C/C=C/C=C/[C@H](O[C@@H]2O[C@H](C)[C@@H](O)[C@H](N)[C@@H]2O)C[C@@H]2O[C@](O)(C[C@@H](O)C[C@@H](O)[C@H](O)CC[C@@H](O)C[C@@H](O)CC(=O)O[C@H]1C)C[C@H](O)[C@H]2C(=O)O` [AMPHOTERICIN B] the MIC (Candida albicans) was 0.25 µM (≈ 0.231 µg/mL).
With `OC(Cn1cncn1)(Cn1cncn1)c1ccc(F)cc1F` [FLUCONAZOLE] the IC50 (Leishmania amazonensis [1]) was 10100 nM.
Work on `CC(=O)N1CCN(c2ccc(OCC3COC(Cn4ccnc4)(c4ccc(Cl)cc4Cl)O3)cc2)CC1` (centres undefined) [KETOCONAZOLE] yielded an IC50 (Leishmania amazonensis [2]) of 6800 nM and an IC50 (Leishmania amazonensis [3]) of 2700 nM.
`C[C@@H]1C[C@@H](C)/C=C/C=C/C=C/C=C/C=C/C=C/C=C/[C@H](O[C@@H]2O[C@H](C)[C@@H](O)[C@H](N)[C@@H]2O)C[C@@H]2O[C@](O)(C[C@@H](O)C[C@@H](O)[C@H](O)CC[C@@H](O)C[C@@H](O)CC(=O)O[C@H]1C)C[C@H](O)[C@H]2C(=O)O` gave an MIC (Candida albicans) of 4 µM (≈ 3.63 µg/mL).
With `CCC(C)n1ncn(-c2ccc(N3CCN(c4ccc(OCC5COC(Cn6cncn6)(c6ccc(Cl)cc6Cl)O5)cc4)CC3)cc2)c1=O` (centres undefined) [ITRACONAZOLE] the IC50 (Leishmania amazonensis [4]) was 440 nM and the IC50 (Leishmania amazonensis [5]) was 80 nM.
